Results taken from US11827628B2, “Compositions and methods for inhibition of the JAK pathway” (Rigel Pharmaceuticals, Inc., priority 2005, dated 2023).

Legend:
Primary human T-cells = experiment: Primary Human T-Cell Proliferation Assay Stimulated with IL-2 (CellTiter-Glo); assay type: cell-based; details: primary human T-cell proliferation stimulated with IL-2; read-out: IC50, Example 42
Outline: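 Peripheral blood T-cells pre-activated with anti-CD3/anti-CD28 and IL-2 were washed free of IL-2, then cultured with compound plus IL-2 for 72 hours at 37° C, duplicate wells. Viability read as ATP by CellTiter-Glo luminescence; IC50 reported.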

[1] = test system: IL-4 stimulated expression of CD23 in human Ramos B cells (JAK-1 and JAK-3); experiment: Assay for Ramos B-Cell Line Stimulated with IL-4 (CD23 upregulation, FACS); assay type: cell-based; details: Ramos B-cell line stimulated with IL-4; CD23 expression by FACS; read-out: IC50, Example 41
Outline: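 Log-phase Ramos cells, 1 h compound pre-incubation at 37 °C; IL-4 50 units/mL final, 20-24 h; CD23-PE stain, FACS; IC50.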

Row | IC50 [1] | Compound | IC50 (Primary human T-cells)
1 | 0.0645 µM | NS(=O)(=O)c1cccc(Nc2ncc(F)c(Nc3ccc(Cc4ccncc4)cc3)n2)c1 [III-70, N2-(3-Aminosulfonylphenyl)-5-fluoro-N4-[4-(4-pyridinylmethyl)phenyl]-2,4-pyrimidinediamine] | 0.169 µM
2 | 0.193 µM | Cc1nnc(COc2ccc(Nc3nc(Nc4ccc(F)c(S(N)(=O)=O)c4)ncc3F)cc2)o1 [Compound I-278, N2-(3-Aminosulfonyl-4-fluorophenyl)-5-fluoro-N4-[4-(5-methyl-1,3,4-oxadiazol-2-yl)methyleneoxyphenyl]-2,4-pyrimidinediamine] | 0.412 µM
3 | 0.223 µM | Cc1nc(COc2ccc(Nc3nc(Nc4ccc(S(N)(=O)=O)cc4)ncc3F)cc2)no1 [Compound I-275, N2-(4-Aminosulfonyl)phenyl-5-fluoro-N4-[4-(5-methyl-1,2,4-oxadiazol-3-yl)methoxy]phenyl-2,4-pyrimidinediamine] | 0.577 µM
4 | 0.0948 µM | CNS(=O)(=O)c1cc(Nc2ncc(F)c(Nc3ccc(OCc4nc(C)no4)cc3)n2)ccc1C [Compound I-260, 5-Fluoro-N2-[3-N-(methyl)aminosulfonyl-4-methylphenyl)-N4-[4-(3-methyl-1,2,4-oxadiazol-5-yl)methyleneoxyphenyl]-2,4-pyrimidinediamine] | 0.223 µM
5 | 0.215 µM | COc1cc(Nc2ncc(F)c(Nc3ccc(CC#N)cc3)n2)ccc1S(N)(=O)=O [III-9, N2-(4-Aminosulfonyl-3-methoxy)phenyl-N4-(4-cyanomethyl)phenyl-5-fluoro-2,4-pyrimidinediamine] | 1.8 µM
6 | 0.273 µM | N#CCCc1ccc(Nc2nc(Nc3ccc(F)c(S(N)(=O)=O)c3)ncc2F)cc1 [III-16, N2-(3-Aminosulfonyl-4-fluorophenyl)-N4-[4-(cyanoethylene)phenyl]-5-fluoro-2,4-pyrimidinediamine] | 0.342 µM
7 | 0.369 µM | Cc1ccc(Nc2ncc(F)c(Nc3ccc(OC4CCN(C)C4)cc3)n2)cc1S(N)(=O)=O (stereo not drawn) [II-10, N2-(3-Aminosulfonyl-4-methylphenyl)-5-fluoro-N4-(N-methylpyrrolidin-3-yloxyphenyl)-2,4-pyrimidinediamine] | 0.876 µM
8 | 0.328 µM | Cc1noc(CCc2ccc(Nc3nc(Nc4ccc(F)c(S(N)(=O)=O)c4)ncc3F)cc2)n1 [Compound I-267, N2-(3-Aminosulfonyl-4-fluorophenyl)-5-fluoro-N4-[4-(3-methyl-1,2,4-oxadiazol-5-yl)ethylenephenyl]-2,4-pyrimidinediamine] | 2.02 µM
9 | 0.0423 µM | Cc1noc(COc2ccc(Nc3nc(Nc4cc(C)c(Cl)c(S(N)(=O)=O)c4)ncc3F)cc2)n1 [Compound I-265, N2-(3-Aminosulfonyl-4-chloro-5-methylphenyl)-5-fluoro-N4-[4-(3-methyl-1,2,4-oxadiazol-5-yl)methyleneoxyphenyl]-2,4-pyrimidinediamine] | 0.0397 µM
10 | 0.135 µM | Cc1nc(COc2ccc(Nc3nc(Nc4cccc(S(N)(=O)=O)c4)ncc3F)cc2)no1 [Compound I-276, N2-(3-Aminosulfonyl)phenyl-5-fluoro-N4-[4-(5-methyl-1,2,4-oxadiazol-3-yl)methoxy]phenyl-2,4-pyrimidinediamine] | 0.106 µM
11 | 0.145 µM | Cc1noc(COc2ccc(Nc3nc(Nc4cccc(S(=O)(=O)NCc5oc(=O)oc5C)c4)ncc3F)cc2)n1 [Compound I-257, N2-{3-[(N-5-Methyl-1,3-dioxolene-2-one-4-yl)methylene]aminosulfonylphenyl}-5-fluoro-N4-[4-(3-methyl-1,2,4-oxadiazol-5-yl)methyleneoxyphenyl]-2,4-pyrimidinediamine] | 0.102 µM
12 | 0.133 µM | Cc1nc(COc2ccc(Nc3nc(Nc4ccc(S(N)(=O)=O)cc4)ncc3F)cc2)cs1 [Compound I-285, N2-(4-Aminosulfonylphenyl)-5-fluoro-N4-[4-(2-methylthiazol-4-yl)methyleneoxyphenyl]-2,4-pyrimidinediamine] | 0.314 µM
13 | 0.518 µM | CCN(CC)CCNS(=O)(=O)c1cccc(Nc2ncc(F)c(Nc3ccc(OCc4csc(C)n4)cc3)n2)c1 [Compound I-283, N2-[3-(2-N,N-Diethylaminoethyl)aminosulfonylphenyl)-5-fluoro-N4-[4-(2-methylthizol-4-yl)methyleneoxyphenyl]-2,4-pyrimidinediamine] | 0.362 µM
14 | 0.151 µM | CNS(=O)(=O)c1cc(Nc2ncc(F)c(Nc3ccc(CC#N)cc3)n2)ccc1C [III-1, 5-Fluoro-N2-[3-(N-methylaminosulfony)-4-methylphenyl]-5-fluoro-N4-(4-cyanomethylphenyl)-2,4-pyrimidinediamine] | 0.545 µM
15 | 0.0932 µM | Cc1nc(COc2ccc(Nc3nc(Nc4cccc(S(N)(=O)=O)c4)ncc3F)cc2)cs1 [Compound I-281, N2-(3-Aminosulfonylphenyl)-5-fluoro-N4-[4-(2-methylthiazol-4-yl)methyleneoxyphenyl]-2,4-pyrimidinediamine] | 0.0904 µM
16 | 0.0851 µM | Cc1ccc(Nc2ncc(F)c(Nc3ccc(CC#N)cc3)n2)cc1S(N)(=O)=O [III-7, N2-(3-Aminosulfonyl-4-methyl)phenyl-N4-(4-cyanomethyl)phenyl-5-fluoro-2,4-pyrimidinediamine] | 0.195 µM

Continued, compound first:

Row | Compound | IC50 [1] | IC50 (Primary human T-cells)
17 | Cc1cc(COc2ccc(Nc3nc(Nc4ccc(C)c(S(N)(=O)=O)c4)ncc3F)cc2C)no1 [Compound I-234, N2-(3-Aminosulfonyl-4-methylphenyl)-5-fluoro-N4-[3-methyl-4-(5-methylisoxazol-3-yl)methyleneoxyphenyl]-2,4-pyrimidinediamine] | 0.102 µM | 1.01 µM
18 | Cc1noc(COc2cccc(Nc3nc(Nc4cccc(S(N)(=O)=O)c4)ncc3F)c2)n1 [Compound I-252, N2-(3-Aminosulfonylphenyl)-5-fluoro-N4-[3-(3-methyl-1,2,4-oxadiazol-5-yl)methyleneoxyphenyl]-2,4-pyrimidinediamine] | 0.0906 µM | 0.558 µM
19 | Cc1cc(COc2ccc(Nc3nc(Nc4cc(C)c(Cl)c(S(N)(=O)=O)c4)ncc3F)cc2)no1 [Compound I-218, N2-(3-Aminosulfonyl-4-chloro-5-methylphenyl)-5-fluoro-N4-[4-(5-methylisoxazol-3-yl)methyleneoxyphenyl]-2,4-pyrimidinediamine] | 0.0726 µM | 0.116 µM
20 | Cc1cc(Nc2nc(Nc3cccc(S(N)(=O)=O)c3)ncc2F)cc(C)c1OCC#N [Compound I-26, N2-(3-Aminosulfonyl)phenyl-N4-(4-cyanomethoxy-3,5-dimethyl)phenyl-5-fluoro-2,4-pyrimidinediamine] | 0.0378 µM | 0.401 µM
21 | N#CCOc1ccc(Nc2nc(Nc3cccc(S(N)(=O)=O)c3)ncc2F)cc1 [Compound I-17, N2-(3-Aminosulfonyl)phenyl-N4-(4-cyanomethoxy)phenyl-5-fluoro-2,4-pyrimidinediamine] | 0.0487 µM | 0.0432 µM
22 | COc1cc(Nc2ncc(F)c(Nc3cc(C)c(OCC#N)c(C)c3)n2)ccc1S(N)(=O)=O [Compound I-32, N2-(4-Aminosulfonyl-3-methoxy)phenyl-N4-(4-cyanomethoxy-3,5-dimethyl)phenyl-5-fluoro-2,4-pyrimidinediamine] | 0.161 µM | 2.78 µM
23 | Cc1cc(COc2ccc(Nc3nc(Nc4cc(Cl)c(C)c(S(N)(=O)=O)c4)ncc3F)cc2F)no1 [Compound I-223, N2-(3-Aminosulfonyl-5-chloro-4-methylphenyl)-5-fluoro-N4-[3-fluoro-4-(5-methylisoxazol-3-yl)methyleneoxyphenyl]-2,4-pyrimidinediamine] | 0.088 µM | 0.625 µM
24 | COc1cc(Nc2ncc(F)c(Nc3ccc(OCC#N)cc3)n2)ccc1S(N)(=O)=O [Compound I-28, N2-(4-Aminosulfonyl-3-methoxyphenyl)-N4-(4-cyanomethoxy)phenyl-5-fluoro-2,4-pyrimidinediamine] | 0.0645 µM | 0.56 µM
25 | Cc1cc(COc2ccc(Nc3nc(Nc4cccc(S(N)(=O)=O)c4)ncc3F)cc2C)no1 [Compound I-238, N2-(3-Aminosulfonylphenyl)-5-fluoro-N4-[3-methyl-4-(5-methylisoxazol-3-yl)methyleneoxyphenyl]-2,4-pyrimidinediamine] | 0.165 µM | 0.456 µM
26 | Cc1cc(COc2ccc(Nc3nc(Nc4ccc(C)c(S(N)(=O)=O)c4)ncc3F)cc2)no1 [Compound I-219, N2-(3-Aminosulfonyl-4-methylphenyl)-5-fluoro-N4-[4-(5-methylisoxazol-3-yl)methyleneoxyphenyl]-2,4-pyrimidinediamine] | 0.0316 µM | 0.123 µM
27 | CN1CCN(S(=O)(=O)c2cccc(Nc3ncc(F)c(Nc4ccc(OCC#N)cc4)n3)c2)CC1 [Compound I-19, N4-(4-Cyanomethoxy)phenyl-5-fluoro-N2-[3-(4-methylpiperazin-1-yl)sulfonyl]phenyl-2,4-pyrimidinediamine] | 0.509 µM | 1.04 µM
28 | 5-Fluoro-N4-[4-(3-methyl-1,2,4-oxadiazol-3-yl)methyleneoxyphenyl]-N2-[(3-N-propanamido)sulfonylphenyl)]-2,4-pyrimidinediamine [Compound I-262] | 0.0783 µM | 0.164 µM
29 | N2-(3-Aminocarbonyl-5-methylphenyl)-5-fluoro-N2-[4-(1-methylpyrazol-5-yl)amidophenyl)-2,4-pyrimidinediamine [II-21] | 0.698 µM | 1.76 µM
30 | Cc1cc(COc2ccc(Nc3nc(Nc4ccc(C)c(S(N)(=O)=O)c4)ncc3F)cc2Cl)no1 [Compound I-221, N2-(3-Aminosulfonyl-4-methylphenyl)-N4-[3-chloro-4-(5-methylisoxazol-3-yl)methyleneoxyphenyl]-5-fluoro-2,4-pyrimidinediamine] | 0.344 µM | 2.68 µM
